#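 The concentration for 50% growth inhibition is given as GI50. TGI marks complete inhibition of growth.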
# Key:
# Test in all cases: NCI anticancer screen, dose series, 384-well format
# 786-0 renal = tested on: 786-0 renal
# A498 renal = tested on: A498 renal
# A549 NSCLC = tested on: A549 NSCLC
# ACHN renal = tested on: ACHN renal
# BT-549 breast = tested on: BT-549 breast
# CAKI-1 renal = tested on: CAKI-1 renal
# CCRF-CEM leukemia = tested on: CCRF-CEM leukemia
# COLO 205 colon = tested on: COLO 205 colon
# DU-145 prostate = tested on: DU-145 prostate
# EKVX NSCLC = tested on: EKVX NSCLC
# HCC-2998 colon = tested on: HCC-2998 colon
# HCT-116 colon = tested on: HCT-116 colon
# HCT-15 colon = tested on: HCT-15 colon
# HL-60(TB) leukemia = tested on: HL-60(TB) leukemia
# HOP-62 NSCLC = tested on: HOP-62 NSCLC
# HOP-92 NSCLC = tested on: HOP-92 NSCLC
# HS 578T breast = tested on: HS 578T breast
# HT29 colon = tested on: HT29 colon
# IGROV1 ovarian = tested on: IGROV1 ovarian
# K-562 leukemia = tested on: K-562 leukemia
# KM12 colon = tested on: KM12 colon
# LOX IMVI melanoma = tested on: LOX IMVI melanoma
# M14 melanoma = tested on: M14 melanoma
# MALME-3M melanoma = tested on: MALME-3M melanoma
# MCF7 breast = tested on: MCF7 breast
# MDA-MB-231 breast = tested on: MDA-MB-231 breast
# MDA-MB-435 melanoma = tested on: MDA-MB-435 melanoma
# MDA-MB-468 breast = tested on: MDA-MB-468 breast
# MOLT-4 leukemia = tested on: MOLT-4 leukemia
smiles,measurement,setting,value
NC(=O)c1ccc(-c2nc(-c3ccc4c(c3)OCO4)c(-c3ccccn3)[nH]2)cc1,GI50,786-0 renal,28 µM
same,TGI,786-0 renal,81.6 µM
same,GI50,A498 renal,23.4 µM
same,TGI,A498 renal,56.3 µM
same,GI50,A549 NSCLC,21.1 µM
same,TGI,A549 NSCLC,57.1 µM
same,GI50,ACHN renal,44.7 µM
same,TGI,ACHN renal,> 100 µM
same,GI50,BT-549 breast,17.5 µM
same,TGI,BT-549 breast,64.3 µM
same,GI50,CAKI-1 renal,28.4 µM
same,TGI,CAKI-1 renal,72.9 µM
same,GI50,CCRF-CEM leukemia,18.1 µM
same,TGI,CCRF-CEM leukemia,38.7 µM
same,GI50,COLO 205 colon,21.7 µM
same,TGI,COLO 205 colon,39.3 µM
same,GI50,DU-145 prostate,23.7 µM
same,TGI,DU-145 prostate,52.1 µM
same,GI50,EKVX NSCLC,14.3 µM
same,TGI,EKVX NSCLC,59.1 µM
same,GI50,HCC-2998 colon,16.7 µM
same,TGI,HCC-2998 colon,36.3 µM
same,GI50,HCT-116 colon,16.9 µM
same,TGI,HCT-116 colon,32.2 µM
same,GI50,HCT-15 colon,18.9 µM
same,TGI,HCT-15 colon,36 µM
same,GI50,HL-60(TB) leukemia,17.8 µM
same,TGI,HL-60(TB) leukemia,31.7 µM
same,GI50,HOP-62 NSCLC,18.5 µM
same,TGI,HOP-62 NSCLC,43 µM
same,GI50,HOP-92 NSCLC,30.7 µM
same,TGI,HOP-92 NSCLC,95.7 µM
same,GI50,HS 578T breast,25.3 µM
same,TGI,HS 578T breast,60.1 µM
same,GI50,HT29 colon,19.9 µM
same,TGI,HT29 colon,44.9 µM
same,GI50,IGROV1 ovarian,19.6 µM
same,TGI,IGROV1 ovarian,46.1 µM
same,GI50,K-562 leukemia,35.3 µM
same,TGI,K-562 leukemia,> 100 µM
same,GI50,KM12 colon,27 µM
same,TGI,KM12 colon,73.2 µM
same,GI50,LOX IMVI melanoma,14.2 µM
same,TGI,LOX IMVI melanoma,29.4 µM
same,GI50,M14 melanoma,24.4 µM
same,TGI,M14 melanoma,83.2 µM
same,GI50,MALME-3M melanoma,29.7 µM
same,TGI,MALME-3M melanoma,52.4 µM
same,GI50,MCF7 breast,20.6 µM
same,TGI,MCF7 breast,49.1 µM
same,GI50,MDA-MB-231 breast,22.2 µM
same,TGI,MDA-MB-231 breast,83 µM
same,GI50,MDA-MB-435 melanoma,39.6 µM
same,TGI,MDA-MB-435 melanoma,> 100 µM
same,GI50,MDA-MB-468 breast,17.9 µM
same,TGI,MDA-MB-468 breast,36.9 µM
same,GI50,MOLT-4 leukemia,16.5 µM
same,TGI,MOLT-4 leukemia,30.3 µM

# From PubChem BioAssay (NCI)
